# Experimental data published in patent publication US20060034882A1, “Yarns and fabrics having long-lasting mosquito repellent or antibacterial effect and their preparation” (FORMOSA TAFFETA CO., LTD., priority 2004, published 2006).
# How the values were obtained:
# rabbits = settings: cited from earlier work
# rats = settings: cited from earlier work
# [1] = amount of compound contained in the fabric before and after laundering (Soxhlet extraction, HPLC); assay type: physicochemical; settings: treated fabric of the Example; for Amounts, Laundering Number L25 (amount of the compound in the fabric after 25 launderings): after 25 launderings (JIS L02173-103), methylene dichloride extraction 4 hours; for Amounts, Laundering Number L0 (amount of the compound in the fabric before laundering): methylene dichloride extraction
# Procedure: The fabric is subjected to a test for determining the amount of Permethrin and octylisothiazolone contained therein.
# The compounds contained in the fabric are extracted, and determined by High Performance Liquid Chromatography (HPLC).
# The fabric is laundered 25 times (JIS L02173-103). Then, the fabric is extracted for 4 hours with methylene dichloride in a Soxhlet extractor. The extract thus obtained is applied into HPLC for determining the amount of Permethrin or octylisothiazolone.
# The amount of the compound contained in the fabric is determined by extraction and HPLC. L0 represents the amount of the compound before laundering. L25 represents the amount of the compound after 25 launderings.
structure (smiles),measurement,setting,value
"CCCCCCCCn1sccc1=O [Octylisothiazolone, octylisothiazolone]",LD50 for acute dermal toxicity in rabbits,rabbits,up to 311 mg/kg
same,LD50 for acute oral toxicity in rats,rats,up to 270 mg/kg
same,"Amounts, Laundering Number L25 (amount of the compound in the fabric after 25 launderings)",[1],10 ppm
same,"Amounts, Laundering Number L25 (amount of the compound in the fabric after 25 launderings)",[1]; listed as octylisothiazolone,greater than 8 ppm
same,"Amounts, Laundering Number L0 (amount of the compound in the fabric before laundering)",[1],80 ppm
CC1(C)C(C=C(Cl)Cl)C1C(=O)OCc1cccc(Oc2ccccc2)c1 (centres unmarked) [Permethrin],LD50 for acute dermal toxicity in rabbits,rabbits,greater than 2500 mg/kg
same,LD50 for acute oral toxicity in rats,rats,up to 470 mg/kg
same,"Amounts, Laundering Number L0 (amount of the compound in the fabric before laundering)",[1],536 ppm
